From US9062043B2, “Fused tricyclic compounds as serine-threonine protein kinase and PARP modulators” (SENHWA BIOSCIENCES, INC., priority 2006, dated 2015)
Where two headings read alike, the source gives them in different places.

How the values were obtained:
Type in all cases: cell-based
[1] = tested on: HCT-116 human colorectal carcinoma cells; test: Cell proliferation assay, Alamar Blue, HCT-116;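 note: cells exposed to compound for about 4 days, then Alamar Blue added and fluorescence read after about 4 h, medium-only wells as control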
[2] = tested on: Jurkat; test: Cell proliferation assay, Alamar Blue, Jurkat; conditions: Homo sapiens;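 note: cells exposed to compound for about 4 days at 37 °C, then Alamar Blue added and fluorescence read after about 4 h, controls given medium without drug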
[3] = tested on: H1299; test: Cell proliferation assay, Alamar Blue, H1299; conditions: Homo sapiens, NCI-H1299; Table 16
Experimental: (§1) c. Plate 4,000-5,000 cells per well in 100 μl of medium and seed into a 96-well plate according to the following plate layout. Add cell culture medium only to wells B10 to B12. Wells B1 to B9 have cells but no compound added.
(§2) d. Add 100 μl of 2× drug dilution to each well in a concentration shown in the plate layout above. At the same time, add 100 μl of media into the control wells (wells B10 to B12). Total volume is 200 μl/well.
(§3) e. Incubate four (4) days at 37° C., 5% CO2 in a humidified incubator.
(§4) f. Add 20 μl Alamar Blue reagent to each well.
(§5) g. Incubate for four (4) hours at 37° C., 5% CO2 in a humidified incubator.
(§6) h. Record fluorescence at an excitation wavelength of 544 nm and emission wavelength of 590 nm using a microplate reader.
(§7) In the assays, cells are cultured with a test compound for approximately four days, the dye then is added to the cells and fluorescence of […] dye is detected after approximately four hours. Different types of cells can be utilized in the assays (e.g., HCT-116 human colorectal carcinoma cells, PC-3 human prostatic cancer cells and MiaPaca human pancreatic carcinoma cells). Anti-proliferative effects of representative compounds are provided hereafter.

[4] = tested on: Hs578T; test: Cell proliferation assay, Alamar Blue, Hs578T; conditions: Homo sapiens, Hs-578T
[5] = tested on: MiaPaca human pancreatic carcinoma cells; test: Cell proliferation assay, Alamar Blue, MiaPaca
Experimental: (§8) A representative cell-proliferation assay protocol using Alamar Blue dye (stored at 4° C., use 20 ul per well) is described hereafter.
as §1, §2, §3, §4, §5, §6, §7

[6] = tested on: PC-3 human prostatic cancer cells; test: Cell proliferation assay, Alamar Blue, PC-3
Experimental: as §8, §1, §2, §3, §4, §5, §6, §7

[7] = tested on: BxPC3; test: Cell proliferation assay, Alamar Blue, BxPC3; conditions: Homo sapiens, BXPC-3; Table 19b
Experimental: as §1, §2, §3, §4, §5, §6, §7

[8] = tested on: PanC1; test: Cell proliferation assay, Alamar Blue, PanC1; conditions: Homo sapiens, PANC-1; Table 19b; read-out: IC50 PanC1
Experimental: as §8, §1, §2, §3, §4, §5, §6, §7

[9] = tested on: HT29; test: Cell proliferation assay, Alamar Blue, HT29; conditions: Homo sapiens, HT-29; Table 19b
Experimental: as §1, §2, §3, §4, §5, §6, §7

[10] = HCT-116, Table 16, first HCT-116 column
[11] = HCT-116, Table 16, second HCT-116 column

O=C(O)c1ccc2c(c1)nc(Nc1ccccc1)c1ccsc12 showed an IC50 [1, 10] greater than 10 µM, an IC50 [1, 11] greater than 10 µM and an IC50 ([2]; Table 16) of 6.12 µM. For the same compound, the IC50 [3] was 4.39 µM, the IC50 ([4]; Table 16) was 6.38 µM and the IC50 ([5]; MIA PaCa-2, Table 16) was greater than 10 µM. The IC50 ([6]; Table 16, read-out: IC50 PC3) was 9.09 µM.

Clc1cccc(Nc2nc3cc(-c4nnn[nH]4)ccc3c3sccc23)c1 showed an IC50 ([2]; Table 16) of 8.89 µM, an IC50 [3] of 15.2 µM and an IC50 ([4]; Table 16) of 5.23 µM. It also gave an IC50 ([5]; MIA PaCa-2, Table 16) greater than 10 µM and an IC50 ([6]; Table 16, read-out: IC50 PC3) of 12 µM.

With O=C(O)c1ccc2c(c1)nc(NC1CC1)c1nc(NC3CC3)ncc12 [drawing 1267] the IC50 [7] was 2.59 µM and the IC50 [8] was 2.6 µM.

For O=C(O)c1ccc2c(c1)nc(NCCc1cccc(Cl)c1)c1ccncc12 [drawing 1219], the IC50 [7] was 24.3 µM, the IC50 [8] was 28.1 µM and the IC50 [9] was 34 µM.

In the case of O=C(O)c1ccc2c(c1)nc(Nc1cncc(C3CC3)c1)c1ccncc12, the IC50 [7] is reported as 38.1 µM and the IC50 [8] is reported as greater than 50 µM.

O=C(O)c1ccc2c(c1)nc(NC1CC1)c1nc(NCc3ccccc3)ncc12 [drawing 1268] gave an IC50 [7] of 10.9 µM and an IC50 [8] of 25.8 µM.

For O=C(O)c1ccc2c(c1)nc(NCCc1cccc(Cl)c1)c1ccncc12 [drawing 1021], the IC50 ([1]; HCT-116, Table 18) was greater than 10 µM, the IC50 ([4]; Table 18) was 25 µM and the IC50 ([5]; MIA PaCa-2, Table 18) was greater than 10 µM. The IC50 ([6]; Table 18, read-out: IC50 PC3) was 46.6 µM.

In the case of O=C(O)c1ccc2c(c1)nc(NC1CC1)c1ccncc12 [drawing 1290], the IC50 [7] is reported as 49 µM and the IC50 [8] is reported as greater than 50 µM.

For O=C(O)c1ccc2c(c1)nc(NCCCc1ccccc1)c1ccncc12 [drawing 1023], the IC50 ([1]; HCT-116, Table 18) was greater than 10 µM, the IC50 ([4]; Table 18) was 29.9 µM and the IC50 ([5]; MIA PaCa-2, Table 18) was greater than 10 µM. For the same compound, the IC50 ([6]; Table 18, read-out: IC50 PC3) was 5.25 µM.

O=C(O)c1ccc2c(c1)nc(NC1CC1)c1nc(NC3CC3)ncc12 [drawing 1074] gave an IC50 ([1]; HCT-116, Table 18) greater than 10 µM, an IC50 ([2]; Table 18) of 3.45 µM and an IC50 ([5]; MIA PaCa-2, Table 18) of 2.83 µM.

Fc1cccc(Nc2nc3cc(-c4nnn[nH]4)ccc3c3cnccc23)c1 showed an IC50 ([6]; Table 18, read-out: IC50 PC3) greater than 50 µM.

CNC(=O)c1cccc(Nc2nc3cc(-c4nnn[nH]4)ccc3c3sccc23)c1 was tested, and the IC50 [1, 11] was greater than 10 µM, the IC50 ([2]; Table 16) was 4.22 µM and the IC50 [3] was 4.01 µM. The IC50 ([4]; Table 16) was 3.01 µM, the IC50 ([5]; MIA PaCa-2, Table 16) was greater than 10 µM and the IC50 ([6]; Table 16, read-out: IC50 PC3) was 2.79 µM.

c1ccc(Nc2nc3cc(-c4nnn[nH]4)ccc3c3sccc23)cc1 was tested, and the IC50 [1, 10] was greater than 10 µM, the IC50 [3] was 11.7 µM and the IC50 ([4]; Table 16) was 21.8 µM. The IC50 ([6]; Table 16, read-out: IC50 PC3) was 20 µM.

O=C(O)c1ccc2c(c1)nc(NCCc1cccc(F)c1)c1ccncc12 [drawing 1220] gave an IC50 [7] of 3.29 µM, an IC50 [8] of 28.2 µM and an IC50 [9] of 31.3 µM.

CNc1ncc2c(n1)c(Nc1cccc(Cl)c1)nc1cc(C(=O)O)ccc12 was tested, and the IC50 ([1]; HCT-116, Table 18) was greater than 10 µM, the IC50 ([2]; Table 18) was 1.09 µM and the IC50 ([5]; MIA PaCa-2, Table 18) was 1.75 µM.

For O=C(O)c1ccc2c(c1)nc(NC1CC1)c1nc(Nc3ccccc3)ncc12 [drawing 1269], the IC50 [7] was 3.92 µM and the IC50 [8] was 4.02 µM.

Work on Fc1cccc(Nc2nc3cc(-c4nnn[nH]4)ccc3c3sccc23)c1 yielded an IC50 [3] of 3.05 µM, an IC50 ([4]; Table 16) of 3.37 µM and an IC50 ([5]; MIA PaCa-2, Table 16) of 9.55 µM. The IC50 ([6]; Table 16, read-out: IC50 PC3) was 2.89 µM.

For COC(=O)c1ccc2c(c1)nc(NC1CC1)c1nc(SCc3ccccc3Cl)ncc12 [drawing 1069], the IC50 ([2]; Table 18) was 4.67 µM and the IC50 ([5]; MIA PaCa-2, Table 18) was 32.4 µM.

Work on O=C(O)c1ccc2c(c1)nc(NCc1cccnc1)c1nc(NC3CC3)ncc12 [drawing 1276] yielded an IC50 [7] greater than 50 µM and an IC50 [8] greater than 50 µM.

For O=C(O)c1ccc2c(c1)nc(N1CCOCC1)c1nc(NC3CC3)ncc12 [drawing 1085], the IC50 ([2]; Table 18) was 3.67 µM and the IC50 ([5]; MIA PaCa-2, Table 18) was greater than 50 µM.

Work on C#Cc1cccc(Nc2nc3cc(C(=O)O)ccc3c3cnc(NCC4CCCO4)nc23)c1 (stereo not drawn) [drawing 1063] yielded an IC50 ([1]; HCT-116, Table 18) greater than 10 µM, an IC50 ([2]; Table 18) of 2.04 µM and an IC50 ([5]; MIA PaCa-2, Table 18) of 0.45 µM.

In the case of Cc1cccc(Nc2nc3cc(C(=O)O)ccc3c3cncnc23)c1, the IC50 ([1]; HCT-116, Table 18) is reported as greater than 10 µM, the IC50 ([2]; Table 18) is reported as 3.45 µM and the IC50 ([5]; MIA PaCa-2, Table 18) is reported as 8.33 µM.

Compound O=C(O)c1ccc2c(c1)nc(NC1CC1)c1nc(SCc3ccccc3Cl)ncc12 [drawing 1072] has an IC50 ([2]; Table 18) of 29.3 µM and an IC50 ([5]; MIA PaCa-2, Table 18) greater than 50 µM.

CCCNc1ncc2c(n1)c(NC1CC1)nc1cc(C(=O)O)ccc12 [drawing 1296] showed an IC50 [7] of 5.58 µM and an IC50 [8] of 1.33 µM.

COC(=O)c1ccc2c(c1)nc(NC1CC1)c1nc(SCc3ccccc3Cl)ncc12 [drawing 1262] showed an IC50 [7] of 2.12 µM and an IC50 [8] of 3.48 µM.
